Assay results as given in patent publication US8937167B2 (Washington University, priority 2009, dated 2015).
Read-outs that look alike come from different tables or passages of the source.

Assays:
[1] = system: UTI89; assay: Mouse UTI model, bladder bacterial titers (CFU); assay type: in vivo, E. coli (UPEC); host C3H/HeN mouse; details: UTI89; 6 hpi; mannoside IP 30 min prior and/or TMP-SMZ 3 days in drinking water
Protocol: For mannoside treatment, bacteria were incubated with 1 mM ZFH56 prior to inoculation. Every 24 h for 3 days, mice were transurethrally inoculated with 1 mM ZFH56. For antibiotic treatment, mice were inoculated with UTI89 and immediately given antibiotics in the drinking water for 3 days. Antibiotics used were trimethoprim-sulfamethoxazole (SXT) at […], respectively. For dual treatment, bacteria were incubated with 1 mM ZFH56 prior to inoculation. Every 24 h for 3 days, mice were transurethrally inoculated with 1 mM ZFH56. Additionally, mice were immediately given antibiotics in the drinking water for 3 days as in the antibiotic only treatment. Urine was collected every day for 13 days. At 2 weeks, mice were sacrificed and bladders were titered.
UTI89 biofilm was grown in LB+/− mannoside for 24 h at 22° C. in PVC plates and quantitated using crystal violet. UTI89 biofilm for confocal microscopy was grown in LB for 24 h at 22° C. on PVC coverslips. Mannoside was then added and biofilm was grown for an additional 16 h. Coverslips were then washed in PBS, fixed in 2% paraformaldehyde and stained with SYTO9 prior to confocal microscopy. For all animal experiments UTI89 or PBC-1 was grown 2×24 h statically in LB at 37° C. and inoculated at a dose of 1×10^7 bacteria in 50 μl. All mice used were female C3H/HeN (Jackson). For the pretreatment studies, bacteria were incubated with mannoside for 20 min prior to inoculation into the mouse. […] For CFU counts, bladders were harvested at 6 hpi and placed in 1 mL PBS. Bladders were then homogenized, diluted and plated on LB. After growth at 37° C. overnight, bacterial counts were determined. LacZ staining and gentamicin protection assays were performed at 6 hpi. […] Water was changed daily with fresh antibiotics. Standard growth curve assays and hemagglutination assays were performed with TMP-SMZ. All statistical analysis performed was a two-tailed Mann-Whitney U test.
Animal infections. Bacteria were grown under type 1 pili-inducing conditions (2×24 h at 37° C. statically in LB). The bacteria were harvested and resuspended to an OD600 of 0.5 in PBS. Eight-week-old C3H/HeN (Harlan) female mice were anesthetized by inhalation of isoflurane and infected via transurethral catheterization with 50 μl of the bacterial suspension, resulting in 1-2×10^7 inoculum. At 6 hpi, mice were sacrificed by cervical dislocation under anesthesia and the bladders were immediately harvested and processed as described below. All animal studies using mice were approved by the Animal Studies Committee of Washington University (Animal Protocol Number 20100002).
Bladder tissue bacterial titer determination. Mannoside ZFH-2056 was administered either IP (5 mg/kg) or orally (100 mg/kg) 30 min prior to inoculation with UTI89. […]

[2] = target: FimH (Escherichia coli, UniProt Q1R2J4); details: Examples 30-36 numbering;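 further: hemagglutination inhibition of guinea pig erythrocytes agglutinated by type 1 piliated uropathogenic E. coli via FimH mannose binding, quantified through serial dilutions of compound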
[3] = assay type: in vitro ADME; details: 64800 sec, […], pH 7.4
Protocol: Materials. The assay was carried out using Multiscreen PVDF 96-well plates (Millipore, Billerica, Mass.) using the company's Transporter Receiver Plate. The lipid (dioleyoylphosphotidylcholine (DOPC):Stearic Acid (80:20, wt %) in dodecane was obtained from Avanti Polar lipids (Alabaster, Ala.). Hank's Buffered Salt Solution (HBSS), pH 7.4 was obtained from MediaTech (Manassas, Va.).
Methods. Each of the test compounds was diluted to 2.5 mM in DMSO (Sigma, St Louis, Mo.) and further diluted prior to testing to 2.5 μM in HBSS, pH 7.4. The assay was performed using a Millipore 96-well Multiscreen-IP PAMPA plate, 5 μl of the lipid suspension was directly added to the PVDF membrane of the filter plate. Immediately following the addition of the lipid to the membrane, 200 μl of HBSS solution containing the test compound was added to the donor (upper) chamber. HBSS (300 μl) is also added to the receiver plate and the filter and receiver plates assembled and incubated overnight at room temperature in a moistened sealed bag to prevent evaporation. The concentration in the receiver plate as well as an equilibrium plate, that represents a theoretical, partition-free sample, was determined by HPLC-tandem mass spectrometry. Analysis of each compound was performed in triplicate.
Analysis. Analysis of both the acceptor and equilibrium samples were performed using an AB 3200 triple quadripole mass spectrometer linked to a Shimadzu DGU-20A HPLC with a Prevail C18 column (3 μm, 2.1×10 mm) with a flow rate of 0.35 ml/min. The mobile phase used was A: 0.1% Formic Acid in water, B: 0.1% Formic Acid in methanol. The elation gradient method is described in the table. Data acquisition and peak height determination was performed using Analyst v.1.4.2.
Calculations. The login of the effective permeability (LogPe) was calculated using the following equation
[formula] [formula] Where the drug concentration is the peak areas for the analyte and VD and VA is the volume of the donor and acceptor compartment respectively. The area is the surface area of the PVDF membrane (0.11 cm^2) and time is the incubation in seconds (64,800 sec). Each value is the mean of triplicates performed on the same day.

Row | Compound | bladder bacterial CFUs [1] | HAI Titer EC>90 ([2]; Table 17) [µM] | HAI Titer EC>90 ([2]; Table 20) [µM] | PAMPA (LogPe) [3]
1 | CNC(=O)c1cc(C(=O)NC)cc(-c2ccc(O[C@H]3O[C@H](CO)[C@@H](O)[C@H](O)[C@@H]3O)cc2)c1 [ZFH-2056] | significant drop in bacterial load | – | – | –
2 | COC(=O)c1cccc(-c2ccc(O[C@H]3O[C@H](CO)[C@@H](O)[C@H](O)[C@@H]3O)cc2)c1 [Compound 1, phenyl mannoside, reference compound] | – | 1.00 | 1.000 | −5.42
